This note sets out measurements from PubChem BioAssay AID248 (DTP/NCI, 2004).

The subject of this experiment is L1210 leukemia ip in BDF1 mice, survival T/C. Kind of experiment: NCI In Vivo Anticancer Drug Screen. Data for tumor model L1210 Leukemia (intraperitoneal) in B6D2F1 (BDF1) mice. The conditions noted are these: endpoint: mean survival time, higher = longer survival. The procedure, abridged: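 Antitumor effect is assessed in tumor-bearing animals. Survival in the compound arm is compared with a vehicle-dosed control arm and expressed as their quotient.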

The mark [1] stands for this setting: dose: 100.0 mg/kg/injection, schedule: Q04DX002 (ip), vehicle: Klucel (hydroxypropylcellulose) (HPC).
[2] abbreviates: dose: 200.0 mg/kg/injection, schedule: Q04DX002 (ip), vehicle: Klucel (hydroxypropylcellulose) (HPC).
[3] abbreviates: dose: 400.0 mg/kg/injection, schedule: Q04DX002 (ip), vehicle: Klucel (hydroxypropylcellulose) (HPC).
Where [4] appears, read: dose: 25.0 mg/kg/injection, schedule: Q01DX Z (ip), vehicle: carboxymethylcellulose (CMC).
[5] abbreviates: dose: 50.0 mg/kg/injection, schedule: Q01DX Z (ip), vehicle: carboxymethylcellulose (CMC).
[6] abbreviates: dose: 100.0 mg/kg/injection, schedule: Q04DX003 (ip), vehicle: saline with Tween-80.
[7] abbreviates: dose: 200.0 mg/kg/injection, schedule: Q04DX003 (ip), vehicle: saline with Tween-80.
The mark [8] stands for this setting: dose: 400.0 mg/kg/injection, schedule: Q04DX003 (ip), vehicle: saline with Tween-80.

Values joined by “and” are separate entries in the source; they are usually repeats but may differ in a detail not shown here. Identical values can stand only once. Toxic doses and inconclusive results are not listed.

`O=C(C1C(c2ccccc2)N1Cc1ccccc1)C1C(c2ccccc2)N1Cc1ccccc1` (configuration not stated): the T/C is 101 % of control (dose: 75.0 mg/kg/injection, schedule: Q01DX001 (ip), vehicle: Klucel (hydroxypropylcellulose) (HPC)); 88 % of control (dose: 150.0 mg/kg/injection, schedule: Q01DX001 (ip), vehicle: Klucel (hydroxypropylcellulose) (HPC)); 93 % of control (dose: 300.0 mg/kg/injection, schedule: Q01DX001 (ip), vehicle: Klucel (hydroxypropylcellulose) (HPC)).

`O=C(NCCS)c1ccc(C(=O)NCCS)cc1`: the T/C is, setting by setting: under setting [1], 95 % of control; under setting [2], 103 % of control; under setting [3], 103 % of control.

Consider `CC(=O)Nc1ccc(C(N)=O)cn1`, for which the T/C is, setting by setting: (dose: 8.0 mg/kg/injection, schedule: Q01DX009 (ip), vehicle: carboxymethylcellulose (CMC)) 98 % of control; (dose: 16.0 mg/kg/injection, schedule: Q01DX009 (ip), vehicle: carboxymethylcellulose (CMC)) 98 % of control; (dose: 32.0 mg/kg/injection, schedule: Q01DX009 (ip), vehicle: carboxymethylcellulose (CMC)) 98 % of control; (dose: 64.0 mg/kg/injection, schedule: Q01DX001 (ip), vehicle: carboxymethylcellulose (CMC)) 94 % of control; (dose: 64.0 mg/kg/injection, schedule: Q01DX009 (ip), vehicle: carboxymethylcellulose (CMC)) 118 % of control; (dose: 128.0 mg/kg/injection, schedule: Q01DX001 (ip), vehicle: carboxymethylcellulose (CMC)) 92 % of control. For the same compound, the T/C is 97 % of control (dose: 256.0 mg/kg/injection, schedule: Q01DX001 (ip), vehicle: carboxymethylcellulose (CMC)) and 92 % of control (dose: 512.0 mg/kg/injection, schedule: Q01DX001 (ip), vehicle: carboxymethylcellulose (CMC)).

Consider `Cc1nc(Br)c2cnccn12`, for which the T/C is, setting by setting: (dose: 12.5 mg/kg/injection, schedule: Q01DX009 (ip), vehicle: saline) 106 % of control; (dose: 12.5 mg/kg/injection, schedule: Q04DX003 (ip), vehicle: saline) 98 % of control; (dose: 25.0 mg/kg/injection, schedule: Q01DX009 (ip), vehicle: saline) 103 % of control; (dose: 25.0 mg/kg/injection, schedule: Q04DX003 (ip), vehicle: saline) 97 % of control; (dose: 50.0 mg/kg/injection, schedule: Q04DX003 (ip), vehicle: saline) 97 % of control.

For `CCOC(=O)N(C(=S)Nc1ccccc1)c1nc(C)cs1`, the T/C (dose: 100.0 mg/kg/injection, schedule: Q01DX001 (ip), vehicle: gum acacia) is 100 % of control; the T/C (dose: 200.0 mg/kg/injection, schedule: Q01DX001 (ip), vehicle: gum acacia) is 111 % of control; the T/C (dose: 400.0 mg/kg/injection, schedule: Q01DX001 (ip), vehicle: gum acacia) is 97 % of control.

In the case of `Cc1c(F)c(I)c(Br)c(C)c1[N+](=O)[O-]`, the T/C (dose: 75.0 mg/kg/injection, schedule: Q04DX003 (ip), vehicle: Klucel (hydroxypropylcellulose) (HPC)) was 104 % of control; the T/C (dose: 150.0 mg/kg/injection, schedule: Q04DX003 (ip), vehicle: Klucel (hydroxypropylcellulose) (HPC)) was 88 % of control; the T/C (dose: 300.0 mg/kg/injection, schedule: Q04DX003 (ip), vehicle: Klucel (hydroxypropylcellulose) (HPC)) was 93 % of control.

`Cc1c(C)c(NC(=O)N(CCCl)N=O)c(C)c(C)c1NC(=O)N(CCCl)N=O`: the T/C by setting is: (dose: 15.5 mg/kg/injection, schedule: Q01DX001 (ip), vehicle: other) 120 % of control; (dose: 62.0 mg/kg/injection, schedule: Q01DX001 (ip), vehicle: other) 152 % of control; (dose: 125.0 mg/kg/injection, schedule: Q01DX001 (ip), vehicle: other) 159 % of control and 160 % of control and 207 % of control; (dose: 250.0 mg/kg/injection, schedule: Q01DX001 (ip), vehicle: other) 203 % of control and 211 % of control and 252 % of control; (dose: 375.0 mg/kg/injection, schedule: Q01DX001 (ip), vehicle: other) 237 % of control; (dose: 500.0 mg/kg/injection, schedule: Q01DX001 (ip), vehicle: other) 223 % of control and 283 % of control. Besides, the T/C (dose: 501.0 mg/kg/injection, schedule: Q01DX001 (ip), vehicle: other) was 115 % of control; the T/C (dose: 750.0 mg/kg/injection, schedule: Q01DX001 (ip), vehicle: other) was 151 % of control and 238 % of control; the T/C (dose: 1000.0 mg/kg/injection, schedule: Q01DX001 (ip), vehicle: other) is 190 % of control.

`CN(N=O)C(=O)N(C)C(=O)N(C)N=O`: the T/C was 104 % of control (dose: 6.25 mg/kg/injection, schedule: Q01DX Z (ip), vehicle: carboxymethylcellulose (CMC)); 112 % of control (dose: 12.5 mg/kg/injection, schedule: Q01DX Z (ip), vehicle: carboxymethylcellulose (CMC)); 108 % of control under setting [4]; 92 % of control under setting [5].

Regarding `CC1CC(C)(C)NC(C2CCC=CO2)N1` (configuration not stated), the T/C is 115 % of control (dose: 44.0 mg/kg/injection, schedule: Q01DX Z (ip), vehicle: saline) and 107 % of control (dose: 100.0 mg/kg/injection, schedule: Q01DX Z (ip), vehicle: saline).

For the compound `CCOP(=S)(N1CC1C)N1CC1C` (configuration not stated), the T/C under setting [4] was 103 % of control; the T/C under setting [5] is 105 % of control; the T/C (dose: 100.0 mg/kg/injection, schedule: Q01DX Z (ip), vehicle: carboxymethylcellulose (CMC)) is 108 % of control; the T/C (dose: 200.0 mg/kg/injection, schedule: Q01DX Z (ip), vehicle: carboxymethylcellulose (CMC)) was 121 % of control.

With `COc1ccc2c(c1)CSC(c1ccccc1)C2=O` (configuration not stated), the T/C is, setting by setting: under setting [1], 105 % of control; under setting [2], 97 % of control; under setting [3], 90 % of control.

Turning to `Nc1[nH]nc2nccnc12`, the T/C is 103 % of control (dose: 100.0 mg/kg/injection, schedule: Q01DX009 (ip), vehicle: saline with Tween-80); 96 % of control under setting [6]; 98 % of control (dose: 200.0 mg/kg/injection, schedule: Q01DX009 (ip), vehicle: saline with Tween-80); 97 % of control under setting [7]; 95 % of control (dose: 400.0 mg/kg/injection, schedule: Q01DX009 (ip), vehicle: saline with Tween-80); 102 % of control under setting [8].

In the case of `CC(C)/C([O-])=N\[N+](C)(C)Cc1ccccc1`, the T/C by setting is: (dose: 100.0 mg/kg/injection, schedule: Q04DX003 (ip), vehicle: saline) 105 % of control; (dose: 200.0 mg/kg/injection, schedule: Q04DX003 (ip), vehicle: saline) 100 % of control; (dose: 400.0 mg/kg/injection, schedule: Q04DX003 (ip), vehicle: saline) 98 % of control.

In the case of `O=[N+]([O-])C1CCCCCCCCCCC1`, the T/C by setting is: (dose: 100.0 mg/kg/injection, schedule: Q01DX001 (ip), vehicle: other) 96 % of control; (dose: 200.0 mg/kg/injection, schedule: Q01DX001 (ip), vehicle: other) 100 % of control; (dose: 400.0 mg/kg/injection, schedule: Q01DX001 (ip), vehicle: other) 96 % of control.

`COC(=N)c1ccc(C)c(I)c1`: the T/C reads like this: under setting [1], 91 % of control; under setting [2], 98 % of control; under setting [3], 94 % of control.

For the compound `Cc1ccc2c(c1C)-c1c(ccc(C)c1C)C(=O)C2=O`, the T/C was 91 % of control (dose: 50.0 mg/kg/injection, schedule: Q04DX002 (ip), vehicle: Klucel (hydroxypropylcellulose) (HPC)); 102 % of control and 113 % of control under setting [1]; 94 % of control under setting [2]; 94 % of control and 100 % of control under setting [3].

As for `NC(CSS(=O)(=O)O)=NCCCc1ccccc1`, the T/C is 97 % of control (dose: 12.5 mg/kg/injection, schedule: Q04DX002 (ip), vehicle: Klucel (hydroxypropylcellulose) (HPC)) and 108 % of control (dose: 25.0 mg/kg/injection, schedule: Q04DX002 (ip), vehicle: Klucel (hydroxypropylcellulose) (HPC)).

As to `Cc1ccc(S(=O)(=O)OCC2C3CCC(C3=O)C2COS(=O)(=O)c2ccc(C)cc2)cc1` (configuration not stated), the T/C by setting is: (dose: 50.0 mg/kg/injection, schedule: Q04DX003 (ip), vehicle: saline with Tween-80) 98 % of control; under setting [6], 96 % of control and 106 % of control; under setting [7], 98 % of control; under setting [8], 86 % of control.
